Reference: paper PMC6127852 (Journal of Enzyme Inhibition and Medicinal Chemistry, 2018)
In brackets after ≈: the same amount, converted by molar mass. Like-named read-outs stand apart in the source and are kept apart here.

Columns and labels:
calf thymus ctDNA = experiment: UV–Vis titration with ctDNA (Scatchard); format: binding; conditions: for Hypochromic effect H/%, ctDNA (from experimental data): footnote e: calculated from experimental data
How it was run: (§1)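 Polynucleotides titrated into compound at 1.48 × 10^−5 mol dm^−3 in PBS (I = 0.05 mol dm^−3, pH 7.0), with UV–Vis spectra in 1 cm quartz cells; ctDNA sonicated and filtered, concentration as nucleobases. Ks and n from Scatchard analysis, in some cases only from data at r ≥ 0.1.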

polyA-polyU [1] = experiment: UV–Vis titration with polyA-polyU (Scatchard); format: binding; conditions: for log Ks, polyA-polyU: binding constant, Scatchard; for Hypochromic effect H/%, polyA-polyU (from experimental data): footnote e: calculated from experimental data
How it was run: as §1

polyC-polyG = experiment: UV–Vis titration with polyC-polyG (Scatchard); format: binding; conditions: PBS, pH 7; for Hypochromic effect H/%, polyC-polyG: UV–Vis titration, calculated by Scatchard equation; for log Ks, polyC-polyG: binding constant, Scatchard
How it was run: as §1

ctDNA = experiment: Thermal melting (ΔTm) of ctDNA; format: binding, calf; conditions: PBS, pH 7
How it was run: (§2)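 UV melting monitored at 260 nm in 1 cm cuvettes, ligand absorbance subtracted and normalised; ΔTm = Tm(complex) − Tm(free nucleic acid), mean of at least two runs, error ±0.5 °C. Compound tested at r = 0.1, 0.3, 0.5 and 0.7 eq ([compound]/[polynucleotide]) with ctDNA and polyA-polyU.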

polyA-polyU [2] = experiment: Thermal melting (ΔTm) of polyA-polyU; format: binding; conditions: for ΔTm, polyA-polyU, r = 0.1: PBS, pH 7; for ΔTm, polyA-polyU, r = 0.3 / ΔTm, polyA-polyU, r = 0.5: first melting midpoint; for ΔTm, polyA-polyU, r = 0.3, second melting midpoint / ΔTm, polyA-polyU, r = 0.5, second melting midpoint: footnote c: biphasic melting curve
How it was run: as §2

S. aureus MRSA = experiment: Broth microdilution MIC, MRSA clinical strain; format: cell-based; conditions: Staphylococcus aureus, antibiotic-resistant clinical strain
How it was run: (§3)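 MICs were set by CLSI broth microdilution in cation (Ca2+, Mg2+)-adjusted Mueller–Hinton broth, in triplicate. Panel: S. aureus ATCC 25923, MRSA, MSSA, E. faecalis, VRE E. faecium, E. coli ATCC 25925, P. aeruginosa ATCC 27853, A. baumannii ATCC 19606 and ESBL K. pneumoniae ATCC 27736.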

S. aureus MSSA = experiment: Broth microdilution MIC, MSSA clinical strain; format: cell-based; conditions: Staphylococcus aureus
How it was run: as §3

E. faecium VRE = experiment: Broth microdilution MIC, VRE clinical strain; format: cell-based; conditions: Enterococcus faecium
How it was run: as §3

S. aureus ATCC 25923 = experiment: Broth microdilution MIC, S. aureus ATCC 25923; format: cell-based; conditions: Staphylococcus aureus, ATCC25923; Table S2
How it was run: (§4)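 Compounds were serially tested in Ca^2+/Mg^2+-adjusted Mueller–Hinton broth using the CLSI-recommended microdilution procedure, then the lowest inhibitory concentration was recorded; each determination was done three times.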

E. faecalis ATCC 29212 = experiment: Broth microdilution MIC, E. faecalis ATCC 29212; format: cell-based; conditions: Enterococcus faecalis, ATCC29212; Table S2
How it was run: as §4

E. coli ATCC 25925 = experiment: Broth microdilution MIC, E. coli ATCC 25925; format: cell-based; conditions: Escherichia coli, ATCC25925; Table S2
How it was run: as §4

K. pneumonia ATCC 700803 = experiment: Broth microdilution MIC, K. pneumoniae ATCC 700803; format: cell-based; conditions: Klebsiella pneumoniae, ATCC700803; Table S2
How it was run: as §4

P. aeruginosa ATCC 27853 = experiment: Broth microdilution MIC, P. aeruginosa ATCC 27853; format: cell-based; conditions: Pseudomonas aeruginosa, ATCC27853; Table S2
How it was run: as §4

A. baumannii ATCC 19606 = experiment: Broth microdilution MIC, A. baumannii ATCC 19606; format: cell-based; conditions: Acinetobacter baumannii, ATCC19606; Table S2
How it was run: as §4

[3] = system: bloodstream form T. brucei (strain 221); experiment: Anti-trypanosomal screening, resazurin; format: cell-based; conditions: Trypanosoma brucei, mean of triplicate ± SEM
How it was run: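 Parasites grown in modified Iscove's medium with compound in triplicate; resazurin added at 48 h and plates read after a further 16 h.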

[4] = system: L6 cells (a rat myoblast line); experiment: Cytotoxicity against mammalian cells, resazurin; format: cell-based; conditions: L6, 144 h, 6 d incubation
Description: Cytotoxicity against mammalian cells was also assessed using microtitre plates. Briefly, L6 cells (a rat myoblast line) were seeded at 1 × 10^4 ml^−1 in 200 µl of growth medium containing different compound concentrations. The plates were then incubated for 6 d at 37 °C and 20 µl resazurin added to each well. After a further 8 h incubation, the fluorescence was determined using a Spectramax plate reader, as outlined above.

[5] = system: polyA-polyU (RNA, polymer) A/U; experiment: UV melting at 260 nm; conditions: PBS, I = 0.05 M, cations not specified, pH 7, r = 0.3 [compound]/[polynucleotide], error ±0.5, biphasic, second midpoint 6.38, per base
[6] = system: polyA-polyU (RNA, polymer) A/U; experiment: UV-Vis titration, Scatchard; conditions: PBS
[7] = system: polyG-polyC (polyC-polyG) (RNA, polymer) G/C; experiment: UV-Vis titration, Scatchard; conditions: PBS, I = 0.05 M (Table 1 says I = 0.015 M), cations not specified, I = 0.015 M (Methods: 0.05 M)
[8] = system: Gram-positive and Gram-negative bacteria; experiment: Anti-microbial activity overall (all tested bacteria); format: cell-based; conditions: summary over tested strains; read-out: MIC, anti-microbial activities overall
Description: The compounds were evaluated for their in vitro anti-bacterial activity against Gram-positive bacteria: S. aureus (ATCC 25923), MRSA, methicillin-sensitive S. aureus (MSSA), E. faecalis, vancomycin-resistant E. faecium (VREF), and Gram-negative bacteria: E. coli (ATCC 25925), P. aeruginosa (ATCC 27853), A. baumannii (ATCC 19606) and ESBL-producing K. pneumoniae (ATCC 27736). Standard broth microdilution method as recommended in guidelines of Clinical and Laboratory Standards Institute[61] ^, [65] ^, [66] was applied and the minimum inhibitory concentration (MIC) of compounds was tested. In short, testing was performed in U-bottomed 96-well sterile plastic microdilution trays (Falcon 3077, Becton Dickinson Labware, Franklin Lakes, NJ) in cation (Ca^2+ and Mg^2+) adjusted Mueller–Hinton broth medium (Becton Dickinson and Co., Cockeysville, MD). All testings were performed in triplicate.

[9] = system: bloodstream form T. brucei (strain 221); conditions: read-out: T. brucei IC50 (reference drug), ref [83]; cited from earlier work
[10] = UV–Vis titration, PBS, pH 7, calculated by Scatchard equation

Row | SMILES | log Ks, polyA-polyU (polyA-polyU [1]; PBS, pH 7) | Hypochromic effect H/%, polyC-polyG (polyC-polyG) [%] | log Ks, polyC-polyG (polyC-polyG) | ΔTm, polyA-polyU, r = 0.1 (polyA-polyU [2]) [°C] | MIC (S. aureus MRSA) [µg/mL] | MIC (S. aureus MSSA) [µg/mL] | MIC (E. faecium VRE) [µg/mL] | MIC (S. aureus ATCC 25923) [µg/mL] | MIC (E. faecalis ATCC 29212) [µg/mL] | MIC (E. coli ATCC 25925) [µg/mL] | MIC (K. pneumonia ATCC 700803) [µg/mL] | MIC (P. aeruginosa ATCC 27853) [µg/mL] | MIC (A. baumannii ATCC 19606) [µg/mL] | IC50 [3] [µM] | IC90 [3] [µM] | IC50 [4] [µM] | melting point [°C] | Hypochromic effect H/%, ctDNA (from experimental data) (calf thymus ctDNA; UV–Vis titration, PBS, pH 7) | Hypochromic effect H/%, polyA-polyU (from experimental data) (polyA-polyU [1]) | MIC [8] [µg/mL] | also measured
1 | COc1ccc(-n2cc(COc3ccc(-c4nc5cc(C(=N)NC(C)C)ccc5[nH]4)cc3)nn2)cc1.Cl.Cl [Compound 8b, N-isopropyl-2–(4-((1–(4-methoxyphenyl)-1H-1,2,3-triazol-4-yl)methoxy)phenyl)-1H-benz[d]imidazole-5-carboximidamide dihydrochloride] | 5.27 | 5.05 | 6.39 | 1.17 | 16 | 64 | 128 | 128 | 64 | 256 | > 256 | > 256 | > 256 | 1.1 ± 0.3 | 3.5 ± 0.2 | > 300 | 188 to 191 |  |  |  | Hypochromic effect H/%, ctDNA (calf thymus ctDNA; [10]): 29.7%; log Ks, ctDNA (range r ≥ 0.1) (calf thymus ctDNA; footnote f: mixed binding mode, calculated in range r ≥ 0.1): 6.06; Hypochromic effect H/%, polyA-polyU (polyA-polyU [1]; [10]): 57.8%; ΔTm, ctDNA, r = 0.5 (ctDNA; r = 0.5): 3.96 °C; ΔTm, ctDNA, r = 0.7 (ctDNA; r = 0.7): 4.47 °C; ΔTm, ctDNA, r = 0.3 (ctDNA; r = [compound]/[polynucleotide] 0.3, error ±0.5 °C): 4.03 °C; ΔTm, polyA-polyU, r = 0.3 (polyA-polyU [2]): 1.32 °C; ΔTm, polyA-polyU, r = 0.3, second melting midpoint (polyA-polyU [2]): 6.38^c °C; ΔTm, polyA-polyU, r = 0.5 (polyA-polyU [2]): 1.56 °C; ΔTm, polyA-polyU, r = 0.5, second melting midpoint (polyA-polyU [2]): 8.49^c °C; ΔTm [5]: 1.32 °C; log Ks ([6]; I = 0.05 M (Table 1 says I = 0.015 M), cations not specified, I = 0.015 M (Methods: 0.05 M), pH 7, per base): 5.27; log Ks ([7]; pH 7, per base): 6.39
2 | COc1ccc(-n2cc(COc3ccc(-c4nc5cc(C(=N)N)ccc5[nH]4)cc3)nn2)cc1.Cl.Cl [Compound 7b, 2–(4-((1–(4-Methoxyphenyl)-1H-1,2,3-triazol-4-yl)methoxy)phenyl)-1H-benz[d]imidazole-5-carboximidamide dihydrochloride] |  | 13.7 | 6.27 |  |  |  | 256 | > 256 | 128 | > 256 | > 256 | > 256 | > 256 | 1.5 ± 0.3 | 8.1 ± 0.6 | 302 ± 15 | 195 to 197 | 22.1 ^e % | 27.9 ^e % | ≥ 128 | 
3 | c1ccc(-n2cc(COc3ccc(-c4nc5cc(C6=NCCN6)ccc5[nH]4)cc3)nn2)cc1 [Compound 9a] |  |  | 6.21 |  | 128 (≈ 294 µM) | 128 (≈ 294 µM) | 128 (≈ 294 µM) | 128 (≈ 294 µM) | 128 (≈ 294 µM) | 256 (≈ 588 µM) | > 256 | > 256 | > 256 | 7.9 ± 0.4 | 17.2 ± 1.2 |  |  | 25.7 ^e % | 32.7 ^e % | ≥ 128 | binding ([6]; pH 7, changes too small for accurate calculation, compound 14.8 µM): weak; log Ks ([7]; pH 7, n fixed, per base): 6.21
4 | COc1ccc(-n2cc(COc3ccc(-c4nc5cc(C6=NCCN6)ccc5[nH]4)cc3)nn2)cc1.Cl.Cl [Compound 9b, 5–(4,5-Dihydro-1H-imidazol-2-yl)-2–(4-((1–(4-methoxyphenyl)-1H-1,2,3-triazol-4-yl)methoxy)phenyl)-1H-benz[d]imidazole dihydrochloride] | 5.46 |  |  | 2.49 | 256 | 256 | 256 | 128 | 256 | 256 | > 256 | > 256 | > 256 | 1.6 ± 0.4 | 7.3 ± 0.3 | 263 ± 15 | 197 to 199 | 18.9 ^e % | 31.6 ^e % | ≥ 128 | ΔTm, polyA-polyU, r = 0.3 (polyA-polyU [2]): 2.67 °C; ΔTm, polyA-polyU, r = 0.3, second melting midpoint (polyA-polyU [2]): 36.08^c °C; ΔTm, polyA-polyU, r = 0.5 (polyA-polyU [2]): 2.92 °C; ΔTm, polyA-polyU, r = 0.5, second melting midpoint (polyA-polyU [2]): 40.93^c °C
5 | CC1CS(=O)(=O)CCN1/N=C/c1ccc([N+](=O)[O-])o1 (centres unmarked) [Nifurtimox, nifurtimox] |  |  |  |  |  |  |  |  |  |  |  |  |  |  |  |  |  |  |  |  | IC50 [9]: 4.4 ± 0.7 µM
